Activity calls are given as the source filed them. No cut-off for these calls is given here.
Columns and labels:
[1] = Oral bioavailability in Sprague-Dawley rat at 100 mg/kg and measured upto 24 hrs by LC-MS/MS analysis; type: ADME, organism-based; conditions: in vivo
[2] = test system: Histone-lysine N-methyltransferase EZH2 (Homo sapiens), Q15910 [A677G]; conditions: dose 10.0 nM
Description: Inhibition of EZH2 A667G mutant (unknown origin) at 10 nM by AlphaLlSA assay

[3] = Glutathione reactivity in pH 7.4 phosphate buffer assessed as GSH-adduct formation at 1 mM incubated for 2 to 12 hrs by HPLC-MS analysis; type: physicochemical; conditions: pH 7.4, 1000 µM, time 2-12 hrs
OVCAR-3 = experiment: Antiproliferative activity against human OVCAR-3 cells assessed as inhibition of cell proliferation incubated for 72 hrs by MTT assay; type: functional, cell-based; conditions: OVCAR-3, 72 h
[4] = MRT(t) in Sprague-Dawley rat at 5 mg/kg, iv and measured upto 24 hrs by LC-MS/MS analysis; type: ADME, organism-based; conditions: in vivo
[5] = Cmax in Sprague-Dawley rat at 5 mg/kg, iv and measured upto 24 hrs by LC-MS/MS analysis; type: ADME, organism-based; set-up: dose 5 mg/kg, time < 24 hrs, route iv; conditions: in vivo
MCF7 = experiment: Antiproliferative activity against human MCF7 cells assessed as inhibition of cell proliferation incubated for 72 hrs by MTT assay; type: functional, cell-based; conditions: MCF7, 72 h
[6] = target: T1, Histone-lysine N-methyltransferase EZH2 (Homo sapiens, UniProt Q15910); experiment: Inhibition of wild type EZH2 (unknown origin) by AlphaLlSA assay
Target sequence in this assay (Q15910 whole entry): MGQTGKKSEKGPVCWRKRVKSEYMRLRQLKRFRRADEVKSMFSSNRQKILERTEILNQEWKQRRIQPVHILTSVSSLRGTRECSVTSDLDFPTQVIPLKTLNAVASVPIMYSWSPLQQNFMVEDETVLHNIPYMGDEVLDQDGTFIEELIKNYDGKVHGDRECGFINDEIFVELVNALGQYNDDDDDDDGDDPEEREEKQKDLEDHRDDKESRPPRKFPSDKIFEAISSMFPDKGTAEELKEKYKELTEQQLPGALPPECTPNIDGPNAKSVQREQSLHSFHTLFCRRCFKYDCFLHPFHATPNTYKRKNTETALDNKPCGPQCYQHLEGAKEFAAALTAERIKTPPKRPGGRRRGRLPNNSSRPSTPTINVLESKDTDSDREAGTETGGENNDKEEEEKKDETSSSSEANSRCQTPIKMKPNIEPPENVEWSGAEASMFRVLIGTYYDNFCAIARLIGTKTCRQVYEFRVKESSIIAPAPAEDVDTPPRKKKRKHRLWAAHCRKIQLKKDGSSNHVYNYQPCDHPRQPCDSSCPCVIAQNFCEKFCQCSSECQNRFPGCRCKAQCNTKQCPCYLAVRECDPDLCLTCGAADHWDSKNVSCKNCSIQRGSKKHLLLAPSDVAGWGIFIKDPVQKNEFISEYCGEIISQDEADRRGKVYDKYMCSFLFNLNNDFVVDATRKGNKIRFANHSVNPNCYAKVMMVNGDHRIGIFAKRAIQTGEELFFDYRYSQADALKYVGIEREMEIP

OAW-42 = experiment: Antiproliferative activity against human OAW-42 cells assessed as inhibition of cell proliferation incubated for 72 hrs by MTT assay; type: functional, cell-based; conditions: OAW-42, 72 h
[7] = test system: Histone-lysine N-methyltransferase EZH2 (Homo sapiens), Q15910 [Y641N]; experiment: Inhibition of EZH2 […] mutant (unknown origin) at 1 nM by AlphaLlSA assay
4T1 = experiment: Antiproliferative activity against mouse 4T1 cells assessed as inhibition of cell proliferation incubated for 72 hrs by MTT assay; type: functional, cell-based; conditions: 4T1, 72 h
Mus musculus = experiment: In vivo inhibition of EZH2 in human PA-1 cells xenografted in BALB/C nude mouse assessed as reduction in H3K27me3 expression level at 75 to 150 mg/kg,po BID for 21 days by immunohistochemical analysis; type: functional, organism-based; conditions: dose 75-150 mg/kg, time 21.0 day
PA-1 [8] = experiment: Induction of apoptosis in human PA-1 cells assessed as necrotic cells at 10 uM incubated for 48 hrs by AnnexinV-FITC/PI staining based flow cytometry analysis (Rvb= 1.48%); type: functional
PA-1 [9] = experiment: Induction of apoptosis in human PA-1 cells assessed as viable cells at 40 uM incubated for 48 hrs by AnnexinV-FITC/PI staining based flow cytometry analysis (Rvb= 88.53%); type: functional; conditions: read-out: Activity
PA-1 [10] = experiment: Antiproliferative activity against human PA-1 cells assessed as inhibition of cell proliferation incubated for 72 hrs by MTT assay; type: functional, cell-based; conditions: PA-1, 72 h
[11] = target: T1, Histone-lysine N-methyltransferase EZH2; experiment: Covalent inhibition of EZH2 (unknown origin) assessed as slow change in dissociation rate preincubated for 60 mins followed by substrate addition and measured upto 90 mins using Mix-GL11 and 3H-SAM as substrate by spin column method; conditions: time > 150.0 min
Target sequence in this assay (Q15910 whole entry, looked up): as the sequence (Q15910 whole entry) above

[12] = target: T1, Histone-lysine N-methyltransferase EZH2; experiment: Inhibition of EZH2 methyltransferase activity in human A2780 cells assessed as reduction in H3K27me3 level at 10 uM and measured upto 4 days by Western blot analysis; type: cell-based; conditions: time <= 4.0 day, TDE = time-dependent effect
Target sequence in this assay (Q15910 whole entry, looked up): as the sequence (Q15910 whole entry) above

PA-1 [13] = experiment: Antiproliferative activity against human PA-1 cells assessed as reduction in cell viability at 10 uM incubated for 3 days followed by compound washout and measured after 4 days by microscopy analysis; type: functional, cell-based; conditions: time 3.0 day
PA-1 [14] = experiment: Antitumor activity against human PA-1 cells xenografted in BALB/C nude mouse assessed as increase apoptosis by measuring cleaved caspase-3 positive cells at 75 to 150 mg/kg,po BID for 21 days by immunohistochemical analysis; type: functional, organism-based; conditions: dose 75-150 mg/kg, time 21.0 day
PA-1 [15] = experiment: Induction of apoptosis in human PA-1 cells assessed as necrotic cells at 5 uM incubated for 48 hrs by AnnexinV-FITC/PI staining based flow cytometry analysis (Rvb= 1.48%); type: functional
[16] = Toxicity in BALB/C nude mouse xenografted with human PA-1 cells assessed as body weight change at 75 to 150 mg/kg,po BID for 21 days; type: organism-based; conditions: in vivo, 504 h, dose 75-150 mg/kg, time 21 day
[17] = Tmax in Sprague-Dawley rat at 100 mg/kg, po and measured upto 24 hrs by LC-MS/MS analysis; type: ADME, organism-based; conditions: in vivo
PA-1 [18] = experiment: Induction of apoptosis in human PA-1 cells assessed as viable cells at 10 uM incubated for 48 hrs by AnnexinV-FITC/PI staining based flow cytometry analysis (Rvb= 88.53%); type: functional; conditions: read-out: Activity
[19] = Half life in Sprague-Dawley rat at 5 mg/kg, iv and measured upto 24 hrs by LC-MS/MS analysis; type: ADME, organism-based; conditions: in vivo
[20] = target: Histone-lysine N-methyltransferase EZH1 (Homo sapiens) (UniProt Q92800); experiment: Inhibition of EZH1 (unknown origin) by AlphaLlSA assay
SK-BR-3 = experiment: Antiproliferative activity against human SK-BR-3 cells assessed as inhibition of cell proliferation incubated for 72 hrs by MTT assay; type: functional, cell-based; conditions: SK-BR-3, 72 h
PA-1 [21] = experiment: Induction of apoptosis in human PA-1 cells assessed as late apoptotic cells at 5 uM incubated for 48 hrs by AnnexinV-FITC/PI staining based flow cytometry analysis (Rvb= 3.09%); type: functional
PA-1 [22] = experiment: Induction of apoptosis in human PA-1 cells assessed as early apoptotic cells at 10 uM incubated for 48 hrs by AnnexinV-FITC/PI staining based flow cytometry analysis (Rvb= 6.89%); type: functional
PA-1 [23] = experiment: Induction of apoptosis in human PA-1 cells assessed as early apoptotic cells at 5 uM incubated for 48 hrs by AnnexinV-FITC/PI staining based flow cytometry analysis (Rvb= 6.89%); type: functional
PA-1 [24] = experiment: Inhibition of colony formation in human PA-1 cells assessed as reduction in size of colonies at 0.25 to 10 uM incubated for 14 days with medium change every 3 days by crystal violet staining method; type: functional, cell-based; conditions: dose 0.25-10 µM, time 14.0 day
[25] = Half life in Sprague-Dawley rat at 100 mg/kg, po and measured upto 24 hrs by LC-MS/MS analysis; type: ADME, organism-based; conditions: in vivo
[26] = target: T1, Histone-lysine N-methyltransferase EZH2; experiment: Inhibition of EZH2 methyltransferase activity in human PA-1 cells assessed as reduction in H3K27me3 level at 0.3 to 5 uM incubated for 3 days by Western blot analysis; type: cell-based; conditions: dose 0.3-5 µM, time 3.0 day
Target sequence in this assay (Q15910 whole entry, looked up): as the sequence (Q15910 whole entry) above

PA-1 [27] = experiment: Antitumor activity against human PA-1 cells xenografted in BALB/C nude mouse assessed as tumor growth inhibition at 75 mg/kg,po BID for 21 days; type: functional; conditions: PA-1, 504 h, time 21 day, read-out: TGI
[28] = Volume of distribution at steady state in Sprague-Dawley rat at 5 mg/kg, iv and measured upto 24 hrs by LC-MS/MS analysis; type: ADME, organism-based; conditions: in vivo
A2780 = experiment: Antiproliferative activity against human A2780 cells assessed as inhibition of cell proliferation incubated for 3 to 5 days by MTT assay; type: functional, cell-based; conditions: time 3-5 day, TDE = time-dependent effect

Histone-lysine N-methyltransferase EZH2 (Homo sapiens), Q15910 [A677G], sequence (Q15910 whole entry A677G): as the sequence (Q15910 whole entry) above, with A677G counted along it
Histone-lysine N-methyltransferase EZH2 (Homo sapiens), Q15910 [Y641N], sequence (Q15910 whole entry Y641N): as the sequence (Q15910 whole entry) above, with Y641N counted along it
Histone-lysine N-methyltransferase EZH1 (Homo sapiens), sequence (Q92800 whole entry): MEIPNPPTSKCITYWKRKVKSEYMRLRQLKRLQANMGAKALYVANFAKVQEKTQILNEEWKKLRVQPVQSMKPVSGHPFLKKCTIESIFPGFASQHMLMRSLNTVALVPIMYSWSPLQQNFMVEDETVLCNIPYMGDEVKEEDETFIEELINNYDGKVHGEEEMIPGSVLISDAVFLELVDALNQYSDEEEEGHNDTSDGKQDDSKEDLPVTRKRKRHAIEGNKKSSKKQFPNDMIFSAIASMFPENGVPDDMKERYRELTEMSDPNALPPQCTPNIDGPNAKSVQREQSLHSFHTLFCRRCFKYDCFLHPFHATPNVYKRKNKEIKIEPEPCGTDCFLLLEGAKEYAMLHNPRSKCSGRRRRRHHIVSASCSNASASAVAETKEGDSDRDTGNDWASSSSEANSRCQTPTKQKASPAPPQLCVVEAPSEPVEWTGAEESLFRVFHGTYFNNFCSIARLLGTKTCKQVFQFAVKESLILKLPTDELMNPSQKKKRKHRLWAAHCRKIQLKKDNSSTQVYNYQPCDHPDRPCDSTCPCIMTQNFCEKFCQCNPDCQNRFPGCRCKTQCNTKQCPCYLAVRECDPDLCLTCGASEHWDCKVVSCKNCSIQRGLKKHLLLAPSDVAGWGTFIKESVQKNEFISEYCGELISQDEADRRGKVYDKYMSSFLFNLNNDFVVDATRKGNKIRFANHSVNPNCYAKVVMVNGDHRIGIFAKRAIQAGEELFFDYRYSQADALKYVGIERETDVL

Compound: C=CC(=O)Nc1ccc(C)c(-c2cc(C(=O)NCc3c(C)cc(C)[nH]c3=O)c(C)c(N(CC)C3CCOCC3)c2)c1
- bioavailability [1]: 8.73%
- inhibition [2]: Active
- Activity [3]: Not Active
- IC50 (OVCAR-3): 35.6 µM
- MRT(t) [4]: 15.6 min
- Cmax [5]: 22800 ng/mL
- IC50 (MCF7): 56.2 µM
- IC50 [6]: 0.00172 µM
- IC50 (OAW-42): > 100 µM
- inhibition [7]: Active
- IC50 (4T1): 24.5 µM
- inhibition (Mus musculus): Active
- Activity (PA-1 [8]): 0.94%
- viability at 40 µM (PA-1 [9]): 10.3%
- IC50 (PA-1 [10]): 10.1 µM
- inhibition [11]: Active
- inhibition [12]: Tde
- Activity (PA-1 [13]): Active
- Activity (PA-1 [14]): Active
- Activity (PA-1 [15]): 1.22%
- Activity [16]: Non-Toxic
- Tmax [17]: 22.8 min
- viability at 10 µM (PA-1 [18]): 70.5%
- t1/2 [19]: 36.6 min
- inhibition [20]: Active
- IC50 (SK-BR-3): 22.8 µM
- Activity (PA-1 [21]): 5.21%
- Activity (PA-1 [22]): 22.39%
- Activity (PA-1 [23]): 10.39%
- inhibition (PA-1 [24]): Dose-Dependent Effect
- half-life [25]: 46.2 min
- inhibition [26]: Dose-Dependent Effect
- inhibition in vivo at 75 mg/kg (PA-1 [27]): 45.3%
- Vdss [28]: 0.20228 L/kg
- Activity (A2780): Tde

Source: ChEMBL document CHEMBL5316326, “Discovery of a Novel Covalent EZH2 Inhibitor Based on Tazemetostat Scaffold for the Treatment of Ovarian Cancer” (J Med Chem, 2023)
